PubChem BioAssay (NCI)
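Where inhibition never reached the appropriate level, the endpoint shown equals the highest concentration tested. Otherwise, values were interpolated linearly from a five-concentration, 48-hour dose response in 96-well plates. TGI is the concentration that stops growth completely.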

Key:
Experiment in all cases: NCI anticancer screen, dose series, 48 h
[1] = system: 786-0 renal
[2] = system: A498 renal
[3] = system: A549 NSCLC
[4] = system: ACHN renal
[5] = system: BT-549 breast
[6] = system: CAKI-1 renal
[7] = system: CCRF-CEM leukemia
[8] = system: COLO 205 colon
[9] = system: DU-145 prostate
[10] = system: EKVX NSCLC
[11] = system: HCC-2998 colon
[12] = system: HCT-116 colon
[13] = system: HCT-15 colon
[14] = system: HL-60(TB) leukemia
[15] = system: HOP-62 NSCLC
[16] = system: HOP-92 NSCLC
[17] = system: HS 578T breast
[18] = system: HT29 colon
[19] = system: IGROV1 ovarian
[20] = system: K-562 leukemia
[21] = system: KM12 colon
[22] = system: LOX IMVI melanoma
[23] = system: M14 melanoma
[24] = system: MALME-3M melanoma
[25] = system: MCF7 breast
[26] = system: MDA-MB-231 breast
[27] = system: MDA-MB-435
[28] = system: MDA-N
[29] = system: MOLT-4 leukemia
[30] = system: NCI-H226 lung
[31] = system: NCI-H23 lung
[32] = system: NCI-H460 lung
[33] = system: NCI-H522 lung
[34] = system: NCI/ADR-RES ovarian
[35] = system: OVCAR-3 ovarian
[36] = system: OVCAR-4 ovarian
[37] = system: OVCAR-5 ovarian
[38] = system: OVCAR-8 ovarian
[39] = system: PC-3 prostate
[40] = system: RPMI-8226 leukemia
[41] = system: RXF 393 renal
[42] = system: SF-268 CNS
[43] = system: SF-295 CNS
[44] = system: SF-539 CNS
[45] = system: SK-MEL-2 melanoma
[46] = system: SK-MEL-28 melanoma
[47] = system: SK-MEL-5 melanoma
[48] = system: SK-OV-3 ovarian
[49] = system: SN12C renal
[50] = system: SNB-19 CNS
[51] = system: SNB-75 CNS
[52] = system: SR leukemia
[53] = system: SW-620 colon
[54] = system: T-47D breast
[55] = system: TK-10 renal
[56] = system: U251 CNS
[57] = system: UACC-257 melanoma
[58] = system: UACC-62 melanoma
[59] = system: UO-31 renal

Question: Which TGI [1] does the source give for N#CC1CCCC2SC(F)(F)C(F)(F)C12 (configuration not stated) here?
Answer: > 100 µM

Question: What about the TGI [2] of the same compound?
Answer: > 100 µM

Question: And the TGI [3]?
Answer: > 100 µM

Question: What about the TGI [4] of the same compound?
Answer: > 100 µM

Question: And the TGI [5]?
Answer: > 100 µM

Question: What about the TGI [6] of the same compound?
Answer: > 100 µM

Question: What about the TGI [7] of the same compound?
Answer: > 66.7 µM

Question: What about the TGI [8] of the same compound?
Answer: > 100 µM

Question: And the TGI [9]?
Answer: > 100 µM

Question: And the TGI [10]?
Answer: > 100 µM

Question: What about the TGI [11] of the same compound?
Answer: > 100 µM

Question: What about the TGI [12] of the same compound?
Answer: > 100 µM

Question: What about the TGI [13] of the same compound?
Answer: > 100 µM

Question: And the TGI [14]?
Answer: 54.9 µM

Question: What about the TGI [15] of the same compound?
Answer: > 100 µM

Question: What about the TGI [16] of the same compound?
Answer: > 100 µM

Question: What about the TGI [17] of the same compound?
Answer: > 100 µM

Question: And the TGI [18]?
Answer: > 100 µM

Question: What about the TGI [19] of the same compound?
Answer: > 100 µM

Question: And the TGI [20]?
Answer: > 78.3 µM

Question: What about the TGI [21] of the same compound?
Answer: > 100 µM

Question: What about the TGI [22] of the same compound?
Answer: > 100 µM

Question: What about the TGI [23] of the same compound?
Answer: > 100 µM

Question: And the TGI [24]?
Answer: > 100 µM

Question: And the TGI [25]?
Answer: > 100 µM

Question: What about the TGI [26] of the same compound?
Answer: > 100 µM

Question: What about the TGI [27] of the same compound?
Answer: > 100 µM

Question: And the TGI [28]?
Answer: > 100 µM

Question: And the TGI [29]?
Answer: 99.3 µM

Question: What about the TGI [30] of the same compound?
Answer: > 100 µM

Question: What about the TGI [31] of the same compound?
Answer: > 100 µM

Question: What about the TGI [32] of the same compound?
Answer: > 100 µM

Question: And the TGI [33]?
Answer: > 100 µM

Question: And the TGI [34]?
Answer: > 100 µM

Question: And the TGI [35]?
Answer: > 100 µM

Question: And the TGI [36]?
Answer: > 100 µM

Question: And the TGI [37]?
Answer: > 100 µM

Question: And the TGI [38]?
Answer: > 100 µM

Question: And the TGI [39]?
Answer: > 100 µM

Question: What about the TGI [40] of the same compound?
Answer: > 100 µM

Question: What about the TGI [41] of the same compound?
Answer: > 100 µM

Question: And the TGI [42]?
Answer: > 100 µM

Question: And the TGI [43]?
Answer: > 100 µM

Question: And the TGI [44]?
Answer: > 100 µM

Question: What about the TGI [45] of the same compound?
Answer: > 100 µM

Question: What about the TGI [46] of the same compound?
Answer: > 100 µM

Question: What about the TGI [47] of the same compound?
Answer: > 100 µM

Question: What about the TGI [48] of the same compound?
Answer: > 100 µM

Question: And the TGI [49]?
Answer: > 100 µM

Question: What about the TGI [50] of the same compound?
Answer: > 100 µM

Question: And the TGI [51]?
Answer: > 100 µM

Question: And the TGI [52]?
Answer: 72.7 µM

Question: What about the TGI [53] of the same compound?
Answer: > 100 µM

Question: What about the TGI [54] of the same compound?
Answer: > 100 µM

Question: And the TGI [55]?
Answer: > 100 µM

Question: What about the TGI [56] of the same compound?
Answer: > 100 µM

Question: And the TGI [57]?
Answer: > 100 µM

Question: What about the TGI [58] of the same compound?
Answer: > 100 µM

Question: What about the TGI [59] of the same compound?
Answer: > 100 µM

Question: Which TGI [1] does the source give for C=C(C(=O)OC)N1C(=O)CC(C)C1=O (configuration not stated) here?
Answer: 23.5 µM

Question: And the TGI [2]?
Answer: 36.8 µM

Question: And the TGI [3]?
Answer: 44.2 µM

Question: And the TGI [4]?
Answer: 7.51 µM

Question: And the TGI [5]?
Answer: 30.9 µM

Question: And the TGI [6]?
Answer: 4.38 µM

Question: What about the TGI [7] of the same compound?
Answer: 4.62 µM

Question: What about the TGI [8] of the same compound?
Answer: 14.3 µM

Question: And the TGI [9]?
Answer: 29.8 µM

Question: And the TGI [10]?
Answer: 29.9 µM

Question: What about the TGI [11] of the same compound?
Answer: 31.4 µM

Question: What about the TGI [12] of the same compound?
Answer: 19.5 µM

Question: What about the TGI [13] of the same compound?
Answer: 23.6 µM

Question: What about the TGI [14] of the same compound?
Answer: 3.78 µM

Question: What about the TGI [15] of the same compound?
Answer: 35.6 µM

Question: What about the TGI [16] of the same compound?
Answer: 3.98 µM

Question: And the TGI [17]?
Answer: 71.2 µM

Question: What about the TGI [18] of the same compound?
Answer: 25.2 µM

Question: And the TGI [19]?
Answer: 31.5 µM

Question: And the TGI [20]?
Answer: 12.8 µM

Question: And the TGI [21]?
Answer: 43.8 µM

Question: What about the TGI [22] of the same compound?
Answer: 19.1 µM

Question: And the TGI [23]?
Answer: 29.6 µM

Question: What about the TGI [24] of the same compound?
Answer: 5 µM

Question: And the TGI [25]?
Answer: 30.5 µM

Question: What about the TGI [26] of the same compound?
Answer: 34.1 µM

Question: What about the TGI [27] of the same compound?
Answer: 37.2 µM

Question: What about the TGI [28] of the same compound?
Answer: 28.9 µM

Question: And the TGI [29]?
Answer: 10.7 µM

Question: And the TGI [30]?
Answer: 70.3 µM

Question: What about the TGI [31] of the same compound?
Answer: 33.5 µM

Question: And the TGI [32]?
Answer: 35.1 µM

Question: And the TGI [33]?
Answer: 5.05 µM

Question: And the TGI [34]?
Answer: 36 µM

Question: And the TGI [35]?
Answer: 22.4 µM

Question: And the TGI [36]?
Answer: 37.4 µM

Question: What about the TGI [37] of the same compound?
Answer: 29.8 µM

Question: What about the TGI [38] of the same compound?
Answer: 43.1 µM

Question: What about the TGI [39] of the same compound?
Answer: 30.4 µM

Question: What about the TGI [40] of the same compound?
Answer: 12.7 µM

Question: What about the TGI [41] of the same compound?
Answer: 26.1 µM

Question: What about the TGI [42] of the same compound?
Answer: 36.4 µM

Question: And the TGI [43]?
Answer: > 72 µM

Question: And the TGI [44]?
Answer: 36 µM

Question: What about the TGI [45] of the same compound?
Answer: 33.9 µM

Question: And the TGI [46]?
Answer: 23.1 µM

Question: What about the TGI [47] of the same compound?
Answer: 32.7 µM

Question: What about the TGI [48] of the same compound?
Answer: 98.9 µM

Question: What about the TGI [49] of the same compound?
Answer: 31.1 µM

Question: And the TGI [50]?
Answer: 58.8 µM

Question: And the TGI [51]?
Answer: 36.2 µM

Question: And the TGI [52]?
Answer: 6.9 µM

Question: What about the TGI [53] of the same compound?
Answer: 25.5 µM

Question: And the TGI [54]?
Answer: 33.1 µM

Question: What about the TGI [55] of the same compound?
Answer: 17.7 µM

Question: And the TGI [56]?
Answer: 35 µM

Question: What about the TGI [57] of the same compound?
Answer: 25.8 µM

Question: What about the TGI [58] of the same compound?
Answer: 29.6 µM

Question: What about the TGI [59] of the same compound?
Answer: 26.1 µM

Question: Which results are given for CCC(C)NC(=S)N/N=C(\C)c1nc2ncccc2[nH]1 (configuration not stated)?
Answer: TGI [1]: > 100 µM; TGI [2]: > 100 µM; TGI [3]: > 100 µM; TGI [4]: > 100 µM; TGI [5]: > 72.3 µM; TGI [6]: 49.4 µM; TGI [7]: 38.7 µM; TGI [8]: > 100 µM; TGI [9]: > 100 µM; TGI [10]: > 100 µM; TGI [11]: > 100 µM; TGI [12]: > 100 µM; TGI [13]: > 100 µM; TGI [14]: > 100 µM; TGI [15]: > 100 µM; TGI [16]: 44.6 µM; TGI [17]: > 100 µM; TGI [18]: > 100 µM; TGI [19]: > 100 µM; TGI [20]: > 100 µM; TGI [21]: > 100 µM; TGI [22]: > 100 µM; TGI [23]: 62.6 µM; TGI [24]: > 100 µM; TGI [25]: > 100 µM; TGI [26]: > 100 µM; TGI [27]: > 100 µM; TGI [28]: > 100 µM; TGI [29]: 46.6 µM; TGI [30]: 38.7 µM; TGI [31]: > 100 µM; TGI [32]: > 100 µM; TGI [33]: > 100 µM; TGI [34]: > 79.5 µM; TGI [35]: > 100 µM; TGI [36]: > 73 µM; TGI [37]: > 84 µM; TGI [38]: > 100 µM; TGI [39]: > 100 µM; TGI [40]: > 100 µM; TGI [41]: > 75.6 µM; TGI [42]: > 88.4 µM; TGI [43]: > 100 µM; TGI [44]: 70.5 µM; TGI [45]: > 100 µM; TGI [46]: > 100 µM; TGI [47]: 28.6 µM; TGI [48]: > 69.9 µM; TGI [49]: > 100 µM; TGI [50]: 97.8 µM; TGI [51]: > 100 µM; TGI [52]: > 85.6 µM; TGI [53]: > 100 µM; TGI [54]: > 56.7 µM; TGI [55]: > 100 µM; TGI [56]: > 100 µM; TGI [57]: > 100 µM; TGI [58]: 79.7 µM; TGI [59]: 11.6 µM
